Converted amounts (≈) assume the structure as drawn. The source made the active and inactive calls. The calls are words filed in the database; no cut-off is given here.
Tests used:
Vero = assay: Cytotoxicity against African green monkey Vero cells by cell titer glo assay; assay type: cell-based; conditions: Chlorocebus sabaeus
[1] = Half life in mouse liver microsomes; assay type: ADME; conditions: for t1/2: microsomes
[2] = Apparent permeability from apical to basolateral side in human Caco2 cells; assay type: ADME, cell-based; conditions: caco-2
[3] = Apparent permeability from basolateral to apical side in human Caco2 cells; assay type: ADME, cell-based; conditions: caco-2
[4] = Plasma protein binding in human; assay type: ADME, cell-free
Bacillus anthracis = assay: Antimicrobial activity against Bacillus anthracis; assay type: functional, organism-based
Bacillus subtilis = assay: Antimicrobial activity against Bacillus subtilis; assay type: functional, organism-based
Enterococcus faecalis = assay: Antimicrobial activity against Enterococcus faecalis; assay type: functional, organism-based
Staphylococcus aureus = assay: Antimicrobial activity against Staphylococcus aureus; assay type: functional, organism-based
Streptococcus pyogenes = assay: Antimicrobial activity against Streptococcus pyogenes; assay type: functional, organism-based
Streptococcus pneumoniae = assay: Antimicrobial activity against Streptococcus pneumoniae; assay type: functional, organism-based
Acinetobacter baumannii = assay: Antimicrobial activity against Acinetobacter baumannii; assay type: functional, organism-based
Escherichia coli = assay: Antimicrobial activity against Escherichia coli; assay type: functional, organism-based
Klebsiella pneumoniae = assay: Antimicrobial activity against Klebsiella pneumoniae; assay type: functional, organism-based
[5] = test system: Mycobacterium tuberculosis; assay: Antimicrobial activity against Mycobacterium tuberculosis H37Rv assessed as growth inhibition after 7 days by microbroth dilution method; assay type: functional; conditions: 168 h
Mus musculus = assay: Toxicity in C57BL/6 mouse at 300 mg/kg, po after 3 days; assay type: organism-based; conditions: in vivo, 72 h
[6] = test system: Mycobacterium tuberculosis; assay: Antimicrobial activity against Mycobacterium tuberculosis H37Rv infected in C57BL/6 mouse assessed as reduction in bacterial load at 100 mg/kg, po after 28 days; assay type: functional, organism-based
[7] = AUC(infinity) in C57BL/6 mouse at 10 mg/kg, iv; assay type: ADME, organism-based; parameters: dose 10 mg/kg, time infinity, route intravenous; conditions: in vivo
[8] = Half life in C57BL/6 mouse at 10 mg/kg, iv; assay type: ADME, organism-based; conditions: in vivo
[9] = Clearance in C57BL/6 mouse at 10 mg/kg, iv; assay type: ADME, organism-based; conditions: in vivo
[10] = Volume of distribution at steady state in C57BL/6 mouse at 10 mg/kg, iv; assay type: ADME, organism-based; conditions: in vivo, read-out: Vdss

Structure (SMILES) | IC50 (Vero) | t1/2 [1] | Papp [2] | Papp [3] | PPB [4] | Activity (Bacillus anthracis) | Activity (Bacillus subtilis) | Activity (Enterococcus faecalis) | Activity (Staphylococcus aureus) | Activity (Streptococcus pyogenes) | Activity (Streptococcus pneumoniae) | Activity (Acinetobacter baumannii) | Activity (Escherichia coli) | Activity (Klebsiella pneumoniae) | MIC [5] | also measured
O=[N+]([O-])c1cn2c(n1)OC[C@@H](OCc1ccc(N3CCCCC3)nc1)C2 | > 100 mg/L | 1.3 h | 376.4 nm/s | 290.4 nm/s | 76.7% | inactive | inactive | inactive | inactive | inactive | inactive | inactive | inactive | inactive | 0.78 mg/L (≈ 2.17 µM) | 
O=[N+]([O-])c1cn2c(n1)OC[C@@H](OCc1ccc(N3CCOCC3)cc1)C2 | 42.3 mg/L (≈ 117 µM) | 8.3 h | 414.9 nm/s | 322.5 nm/s | 39.4% | inactive | inactive | inactive | inactive | inactive | inactive | inactive | inactive | inactive | 3.13 mg/L (≈ 8.69 µM) | 
O=C1CCCCN1c1ccc(CO[C@@H]2COc3nc([N+](=O)[O-])cn3C2)cc1 | > 100 mg/L | 6.7 h | 472.5 nm/s | 342 nm/s | 66.4% | inactive | inactive | inactive | inactive | inactive | inactive | inactive | inactive | inactive | 1.56 mg/L (≈ 4.19 µM) | 
O=C1CSCCN1c1ccc(CO[C@@H]2COc3nc([N+](=O)[O-])cn3C2)cc1 | > 100 mg/L | 0.51 h | 395.6 nm/s | 380.5 nm/s | 59.8% | inactive | inactive | inactive | inactive | inactive | inactive | inactive | inactive | inactive | 25 mg/L (≈ 64 µM) | 
O=C1COCCN1c1ccc(CO[C@@H]2COc3nc([N+](=O)[O-])cn3C2)cn1 | > 100 mg/L | > 4 h | 434.1 nm/s | 238.2 nm/s | 27.9% | inactive | inactive | inactive | inactive | inactive | inactive | inactive | inactive | inactive | 3.13 mg/L (≈ 8.34 µM) | 
O=C1CCCCN1c1ccc(CO[C@@H]2COc3nc([N+](=O)[O-])cn3C2)cn1 | > 100 mg/L | 20.4 h | 336.8 nm/s | 295.6 nm/s | 39.6% | inactive | inactive | inactive | inactive | inactive | inactive | inactive | inactive | inactive | 3.13 mg/L (≈ 8.38 µM) | 
O=C1CSCCN1c1ccc(CO[C@@H]2COc3nc([N+](=O)[O-])cn3C2)cn1 | 15.3 mg/L (≈ 39.1 µM) | 0.63 h | 400 nm/s | 314.4 nm/s | 32.1% | inactive | inactive | inactive | inactive | inactive | inactive | inactive | inactive | inactive | 50 mg/L (≈ 128 µM) | 
O=[N+]([O-])c1cn2c(n1)OC[C@@H](OCc1ccc(N3CCOCC3)c(F)c1)C2 | 23.1 mg/L (≈ 61.1 µM) | 7.7 h | 433.3 nm/s | 332.8 nm/s | 51.3% | inactive | inactive | inactive | inactive | inactive | inactive | inactive | inactive | inactive |  | Activity (Mus musculus): Non-toxic; Activity [6]: inactive; AUC(0-inf) [7]: 10.1 µg·h/mL; half-life [8]: 0.98 h; clearance [9]: 0.99 L/h/kg; Vd [10]: 1.16 L/kg
CC(=O)NC[C@H]1CN(c2ccc(N3CCOCC3)c(F)c2)C(=O)O1 [LINEZOLID] |  |  |  |  | 17.8% |  |  |  |  |  |  |  |  |  | 0.3 mg/L (≈ 0.889 µM) | 
O=[N+]([O-])c1cn2c(n1)OC[C@@H](OCc1ccc(N3CCSCC3)cc1)C2 | 13.7 mg/L (≈ 36.4 µM) | 0.07 h | 266.8 nm/s | 261.3 nm/s | 74.5% | inactive | inactive | inactive | inactive | inactive | inactive | inactive | inactive | inactive | 6.25 mg/L (≈ 16.6 µM) | 
O=[N+]([O-])c1cn2c(n1)OC[C@@H](OCc1ccc(N3CCOCC3)nc1)C2 | > 100 mg/L | 28.1 h | 371.3 nm/s | 276.3 nm/s | 14.5% | inactive | inactive | inactive | inactive | inactive | inactive | inactive | inactive | inactive | 3.13 mg/L (≈ 8.66 µM) | 
O=[N+]([O-])c1cn2c(n1)OC[C@@H](OCc1ccc(N3CCSCC3)c(F)c1)C2 | 14.2 mg/L (≈ 36 µM) | 0.06 h | 321.1 nm/s | 242.6 nm/s | 83.2% | inactive | inactive | inactive | inactive | inactive | inactive | inactive | inactive | inactive | 3.13 mg/L (≈ 7.94 µM) | 
O=C1CCCCN1c1ccc(CO[C@@H]2COc3nc([N+](=O)[O-])cn3C2)cc1F | > 100 mg/L | 3.5 h | 462.6 nm/s | 304.5 nm/s | 74.8% | inactive | inactive | inactive | inactive | inactive | inactive | inactive | inactive | inactive | 3.13 mg/L (≈ 8.02 µM) | 
O=[N+]([O-])c1cn2c(n1)OC[C@@H](OCc1ccc(N3CCCCC3)c(F)c1)C2 | 56.2 mg/L (≈ 149 µM) | 0.41 h | 354.6 nm/s | 284.7 nm/s | 85.6% | inactive | inactive | inactive | inactive | inactive | inactive | inactive | inactive | inactive | < 0.2 mg/L | 
O=[N+]([O-])c1cn2c(n1)OC[C@@H](OCc1ccc(N3CCCCC3)cc1)C2 | 11.6 mg/L (≈ 32.4 µM) | 0.49 h | 317.6 nm/s | 263.3 nm/s | 83% | inactive | inactive | inactive | inactive | inactive | inactive | inactive | inactive | inactive | 0.39 mg/L (≈ 1.09 µM) | 
O=[N+]([O-])c1cn2c(n1)OC[C@@H](OCc1ccc(OC(F)(F)F)cc1)C2 [PRETOMANID] | 44 mg/L (≈ 122 µM) |  | 315.8 nm/s | 131.4 nm/s | 92.9% | inactive | inactive | inactive | inactive | inactive | inactive | inactive | inactive | inactive | 0.39 mg/L (≈ 1.09 µM) | half-life ([1]; liver microsomes): 8.1 h
O=C1CSCCN1c1ccc(CO[C@@H]2COc3nc([N+](=O)[O-])cn3C2)cc1F | > 100 mg/L | 0.6 h | 333.9 nm/s | 370.5 nm/s | 77.6% | inactive | inactive | inactive | inactive | inactive | inactive | inactive | inactive | inactive | 50 mg/L (≈ 122 µM) | 

Source: ChEMBL document CHEMBL3745652, “Synthesis and evaluation of pretomanid (PA-824) oxazolidinone hybrids” (Bioorg Med Chem Lett, 2016)
